From patent US20150344466A1 (SUMITOMO CHEMICAL COMPANY, LIMITED, priority 2013, published 2015)

Test system: Culex pipiens pallens
Assay: Knockdown spray test on adult Culex pipiens pallens (Test Example 4)
Assay type: in vivo
Conditions: topical, 0.25 h, active ingredient 0.1% w/v, 0.5 ml sprayed, within 15 minutes, read-out: knockdown rate of the test insects within 15 minutes
Protocol: Ten adult Culex pipiens pallens were released in a polyethylene cup (bottom diameter: 10.6 cm), and the cup was covered with a 16-mesh nylon gauze. The polyethylene cup was placed on the bottom of a test chamber (bottom: 46 cm×46 cm, height: 70 cm). From a height of 30 cm above the upper surface of the polyethylene cup, 0.5 ml of the test drug solution was sprayed using a spray gun (a spraying pressure of 0.4 kg/cm^2). Immediately after spraying, the cup was taken out from the test chamber, and after 2 minutes, 5 minutes and 15 minutes, the number of knocked-down insects was counted to obtain a knockdown rate. The knockdown rate was calculated by the following equation.
Knockdown Rate (%)=(Number of Knocked-down Insects/Number of Tested Insects)×100

Structure (SMILES)	pest or weed control at 0.1 % strength [%]
O=C(NCC1COCO1)c1cc(COCc2ccccc2)on1 (centres unmarked) [(35), N-[4-(1,3-dioxolyl)methyl]-5-benzyloxymethylisoxazole-3-carboxamide]	≥ 80
O=C(NC1CSC1)c1cc(COCc2ccccc2)on1 [(40), N-(thietan-3-yl)-5-benzyloxymethylisoxazole-3-carboxamide]	≥ 80
O=C(NCC1CCOC1)c1ncc(COc2ccccc2)s1 (centres unmarked) [(47), N-(tetrahydrofuran-3-ylmethyl)-5-phenoxymethythiazole-2-carboxamide]	≥ 80
O=C(NCC1CCOC1)c1ncc(COCc2ccccc2)s1 (centres unmarked) [(48), N-(tetrahydrofuran-3-ylmethyl)-5-benzyloxymethythiazole-2-carboxamide]	≥ 80
O=C(NCC1CCOC1)c1cc(COCc2ccsc2)on1 (centres unmarked) [(107), N-(tetrahydrofuran-3-ylmethyl)-5-(thiophen-3-ylmethoxymethyl)isoxazole-3-carboxamide]	≥ 80
O=C(NCC1CCOCC1)c1cc(COCc2ccsc2)on1 [(108), N-(tetrahydropyran-4-ylmethyl)-5-(thiophen-3-ylmethoxymethyl)isoxazole-3-carboxamide]	≥ 80
O=C(NCC1CCOC1)c1cc(COCc2ccc(Oc3ccccc3)cc2)on1 (centres unmarked) [(117), N-(tetrahydrofuran-3-ylmethyl)-5-(4-phenoxybenzyloxymethyl) isoxazole-3-carboxamide]	≥ 80
Cc1c(COCc2cc(C(=O)NCC3CCOC3)no2)cccc1-c1ccccc1 (centres unmarked) [(123), N-(tetrahydrofuran-3-ylmethyl)-5-(2-methyl-3-phenylbenzyloxymethyl)isoxazole-3-carboxamide]	≥ 80
CC(OCc1cc(C(=O)NCC2CCOC2)no1)c1ccccc1 (centres unmarked) [(125), N-(tetrahydrofuran-3-ylmethyl)-5-[(1-phenylethyl)oxymethyl]isoxazole-3-carboxamide]	≥ 80
O=C(NCC1CCOC1)c1cc(COCCCCc2ccccc2)on1 (centres unmarked) [(135), N-(tetrahydrofuran-3-ylmethyl)-5-(4-phenylbutoxymethyl)isoxazole-3-carboxylic acid-3-carboxamide]	≥ 80
O=C(NCC1CCOCC1)c1cc(COCCCCc2ccccc2)on1 [(136), N-(tetrahydropyran-4-ylmethyl)-5-(4-phenylbutoxymethyl)isoxazole-3-carboxamide]	≥ 80
O=C(NCC1CCOC1)c1cc(COCCCCCc2ccccc2)on1 (centres unmarked) [(137), N-(tetrahydrofuran-3-ylmethyl)-5-(5-phenylpentyloxymethyl)isoxazole-3-carboxylic acid-3-carboxamide]	≥ 80
O=C(NCC1CCOCC1)c1cc(COCCCCCc2ccccc2)on1 [(138), N-(tetrahydropyran-4-ylmethyl)-5-(5-phenylpentyloymethyl)isoxazole-3-carboxamide]	≥ 80
O=C(NCC1CCOC1)c1cc(CCCOc2ccccc2)on1 (centres unmarked) [(145), N-(tetrahydrofuran-3-ylmethyl)-5-(3-phenoxypropyl)isoxazole-3-carboxamide]	≥ 80
O=C(NCC1CCOC1)c1cc(CCCCCOc2ccccc2)on1 (centres unmarked) [(147), N1-(tetrahydrofuran-3-ylmethyl)-5-(5-phenoxypentyl)isoxazole-3-carboxamide]	≥ 80
O=C(NCC1CCOC1)c1cc(CCCCCCOc2ccccc2)on1 (centres unmarked) [(148), N-(tetrahydrofuran-3-ylmethyl)-5-(6-phenoxyhexyl)isoxazole-3-carboxamide]	≥ 80
O=C(NCC1CCOC1)c1cc(Cc2cc3ccccc3s2)on1 (centres unmarked) [(161), N-(tetrahydrofuran-3-ylmethyl)-5-(benzo[b]thiophen-2-ylmethy)isoxazole-3-carboxamide]	≥ 80
O=C(NCC1CCOC1)c1cc(Cc2ccc(Oc3ccccc3)cc2)on1 (centres unmarked) [(162), N-(tetrahydrofuran-3-ylmethyl)-5-(4-phenoxybenzyl)isoxazole-3-carboxamide]	≥ 80
O=C(NCC1CCOC1)c1cc(Cc2cccc(Oc3ccccc3)c2)on1 (centres unmarked) [(163), N-(tetrahydrofuran-3-ylmethyl)-5-(3-phenoxybenzyl)isoxazole-3-carboxamide]	≥ 80
O=C(NCC1CCOCC1)c1cc(COc2cccc(Cl)c2)on1 [(179), N-(tetrahydropyran-4-ylmethyl)-5-(3-chlorophenoxymethyl)isoxazole-3-carboxamide]	≥ 80
O=C(NCC1CCOCC1)c1cc(COc2ccc(F)cc2)on1 [(185)]	≥ 80

Structure (SMILES)	pest or weed control at 0.1 % strength [%]
O=C(NCC1CCOCC1)c1cc(COc2ccc(SC(F)(F)F)cc2)on1 [(193), N-(tetrahydropyran-4-ylmethyl)-5-(4-trifluoromethylthiophenoxymethyl)isoxazole-3-carboxamide]	≥ 80
O=C(NCC1CCOC1)c1cc(COc2cccc(SC(F)(F)F)c2)on1 (centres unmarked) [(202), N-(tetrahydrofuran-3-ylmethyl)-5-(3-trifluoromethylthiophenoxymethyl)isoxazole-3-carboxamide]	≥ 80
O=C(NCC1CCOCC1)c1cc(COc2cccc(SC(F)(F)F)c2)on1 [(203), N-(tetrahydropyran-4-ylmethyl)-5-(3-trifluoromethylthiophenoxymethyl)isoxazole-3-carboxamide]	≥ 80
O=C(NCC1CCOC1)c1noc(COCc2ccc3ccccc3c2)c1CO (centres unmarked) [(209), N-(tetrahydrofuran-3-ylmethyl)-4-hydroxymethyl-5-(2-naphthylmethoxymethyl)isoxazole-3-carboxamide]	≥ 80
COc1ccccc1COCc1cc(C(=O)NCC2CCOC2)no1 (centres unmarked) [(227), N-(tetrahydrofuran-3-ylmethyl)-5-(2-methoxybenzyloxymethyl) isoxazole-3-carboxamide]	≥ 80
O=C(NCC1COCO1)c1cc(CCCc2ccc3ccccc3c2)on1 (centres unmarked) [(229), N-(1,3-dioxolan-4-ylmethyl)-5-[3-(2-naphthyl)propyl]isoxazole-3-carboxamide]	≥ 80
O=C(NCC1CCOC1)c1cc(CCCc2ccc3c(c2)OC(F)(F)O3)on1 (centres unmarked) [(231), N-(tetrahydrofuran-3-ylmethyl)-5-[5-(2,2-difluoro-1,3-benzodioxolanyl)propyl]isoxazole-3-carboxamide]	≥ 80
O=C(NCC1COCCO1)c1cc(CCCc2ccc3c(c2)OC(F)(F)O3)on1 (centres unmarked) [(232), N-(1,4-dioxan-2-ylmethyl)-5-[3-(5-(2,2-difluoro-1,3-benzodioxolanyl))propyl]isoxazole-3-carboxamide]	≥ 80
O=C(NCC1COCCO1)c1cc(COCc2ccc3ccccc3c2)on1 (centres unmarked) [(233), N-(1,4-dioxan-2-ylmethyl)-5-(2-naphthylmethoxymethyl)isoxazole-3-carboxamide]	≥ 80
O=C(NCC1CCOC1)c1cc(COCc2ccc3c(c2)OC(F)(F)O3)on1 (centres unmarked) [(236), N-(tetrahydrofuran-3-ylmethyl)-5-[5-(2,2-difluoro-1,3-benzodioxolanyl)methoxymethyl]isoxazole-3-carboxamide]	≥ 80
O=C(NCC1CCOCC1)c1cc(COCc2ccc3c(c2)OC(F)(F)O3)on1 [(237), N-(tetrahydropyran-4-ylmethyl)-5-[5-(2,2-difluoro-1,3-benzodioxolanyl)methoxymethyl]isoxazole-3-carboxamide]	≥ 80
CC1(CNC(=O)c2cc(COCc3ccc4c(c3)OC(F)(F)O4)on2)COC1 [(238), N-(3-methyloxetan-3-ylmethyl)-5-[5-(2,2-difluoro-1,3-benzodioxolanyl)methoxymethyl]isoxazole-3-carboxamide]	≥ 80
O=C(NCC1CCOC1)c1cc(COCc2ccc(-c3ccccc3)s2)on1 (centres unmarked) [(241), N-(tetrahydrofuran-3-ylmethyl)-5-(5-phenyl-2-thienylmethoxymethyl)isoxazole-3-carboxamide]	≥ 80
O=C(NCC1CCOC1)c1cc(CCCc2ccccc2F)on1 (centres unmarked) [(245), N-(tetrahydrofuran-3-ylmethyl)-5-[3-(2-fluorophenyl)propyl]isoxazole-3-carboxamide]	≥ 80
COc1ccc2cc(CCCc3cc(C(=O)NCC4CCOC4)no3)ccc2c1 (centres unmarked) [(247), N-(tetrahydrofuran-3-ylmethyl)-5-[3-(6-methoxy-2-naphthyl)propyl]isoxazole-3-carboxamide]	≥ 80
O=C(NCC1CCOC1)c1cc(CCCBr)on1 (centres unmarked) [(248), N-(tetrahydrofuran-3-ylmethyl)-5-(3-bromopropyl)isoxazole-3-carboxamide]	≥ 80
C#Cc1c(C(=O)NCC2CCOC2)noc1COCc1ccccc1F (centres unmarked) [(249), N-(tetrahydrofuran-3-ylmethyl)-5-(2-fluorobenzyloxymethyl)-4-ethynylisoxazole-3-carboxamide]	≥ 80
C#Cc1c(C(=O)NCC2CCOC2)noc1COCc1ccc2ccccc2c1 (centres unmarked) [(250), N-(tetrahydrofuran-3-ylmethyl)-5-(2-naphthylmethoxymethyl)-4-ethynylisoxazole-3-carboxamide]	≥ 80
O=C(NCC1CCOC1)c1cc(CCCc2cccc(F)c2)on1 (centres unmarked) [(251), N-(tetrahydrofuran-3-ylmethyl)-5-[3-(3-fluorophenyl)propyl]isoxazole-3-carboxamide]	≥ 80
O=C(NCC1CCOC1)c1cc(CSCc2ccccc2)on1 (centres unmarked) [(254), N-(tetrahydrofuran-3-ylmethyl)-5-benzylthiomethylisoxazole-3-carboxamide]	≥ 80
